What is called IC50 is the concentration that gives 50% inhibition. The low end stands for greater potency, the high end for weaker potency. The GI50 is the concentration giving 50% growth inhibition. Read a low GI50 as more potent growth inhibition.

The subject of test [1] is JIMT-1. Description: In vitro cytotoxicity assay, JIMT-1. The conditions noted are these: JIMT-1, HER2++. Format: cell-based. An excerpt:
(§1) Breast cancer cell line MDA-MB-231 and SK-BR-3, gastric cancer cell line NCI-N87, ovarian cancer cell line SK-OV-3, and pancreatic cancer cell line Capan-1 were purchased from ATCC. Breast cancer cell line JIMT-1 was purchased from Deutsche Sammlung von Mikroorganismen und Zellkulturen (DSMZ, Germany). Gastric cancer cell line MKN45 was purchased from RIKEN. Human umbilical vein endothelial cell line (HUVAC) was purchased from BCRC (Bioresource Collection and Research Center, Hsinchu City, Taiwan).
(§2) Human MDR1 overexpressed NCI-N87 (NCI-N87-hMDR1) cell line was produced by lentiviral vector-mediated gene transduction. Briefly, the lentiviral transfer vector contains both hEF1α promotor-driven hMDR1 coding sequence (CDS) and hPGK promoter-driven EGFP-IRES-Puro bicistronic cassette. The lentivirus was packaged using second-generation lentiviral system in 293T cell line. After transfection, stable NCI-N87-hMDR1 was selected and maintained in puromycin (0.55 μg/mL) containing RPMI-1640 medium. JIMT-1 and MDA-MB-231 were maintained in DMEM supplemented with 10% heat-inactivated fetal bovine serum (FBS). […]
(§3) In vitro cytotoxicity assays were performed as previously described (Boyd and Paull, 1995; Phillips et al., 2008). […] IC50, the half maximal inhibitory concentration, was calculated from dose-response curves which was generated by four-parameter curve fitting.

Test [2] has as its system Capan-1. The experiment in a line: In vitro cytotoxicity assay, Capan-1. The format is cell-based. As to conditions: Capan-1, HER2++.
Text: as §1, §2, §3

Test [3] deals with MDA-MB-231. The experiment in a line: In vitro cytotoxicity assay, MDA-MB-231. As to conditions: MDA-MB-231, HER2+. The format is cell-based.
Text: as §1, §2, §3

Test [4] relates to NCI-N87-hMDR1. The experiment in a line: In vitro cytotoxicity assay, MDR1-overexpressing NCI-N87-hMDR1. The format is cell-based. The procedure:
(§4) Human MDR1 overexpressed NCI-N87 (NCI-N87-hMDR1) cell line was produced by lentiviral vector-mediated gene transduction. Briefly, the lentiviral transfer vector contains both hEF1α promotor-driven hMDR1 coding sequence (CDS) and hPGK promoter-driven EGFP-IRES-Puro bicistronic cassette. The lentivirus was packaged using second-generation lentiviral system in 293T cell line. After transfection, stable NCI-N87-hMDR1 was selected and maintained in puromycin (0.55 μg/mL) containing RPMI-1640 medium. JIMT-1 and MDA-MB-231 were maintained in DMEM supplemented with 10% heat-inactivated fetal bovine serum (FBS). NCI-N87, NCI-N87-hMDR1, SK—OV-3, and MKN45 were maintained in RPMI-1640 supplemented with 10% heat-inactivated FBS. SK-BR-3 was maintained in McCoy's 5A supplemented with 10% heat-inactivated FBS. Capan-1 was maintained in IMDM supplemented with 20% heat-inactivated FBS. HUVAC was maintained in M199 supplemented with 25 U/mL heparin, 30 μg/mL ECGS and 10% heat-inactivated FBS. All cell lines were cultured at 37° C. under 5% CO2 atmosphere.
(§5) In Vitro Cytotoxicity Assays of APDCs
as §3

Test [5] concerns NCI-N87. Description: In vitro cytotoxicity assay, NCI-N87. The format is cell-based.
Text: as §1, §4, §5, §3

Test [6] deals with JIMT-1 xenograft. The experiment in a line: JIMT-1 xenograft tumor model, cytotoxic APDCs. The conditions noted are these: single intravenous injection 10 mg/kg at day zero. The format is in vivo, mice. The protocol:
Xenograft Tumor Model Experiments for Cytotoxic APDCs
Experiments of xenograft tumor model with cytotoxic APDCs were performed as previously described (Jumbe et al., 2010).

Test [7] has as its system SK-BR-3. Description: In vitro cytotoxicity assay, SK-BR-3. The format is cell-based. As to conditions: SK-BR-3, HER2+++.
Text: as §1, §2, §3

Test [8] deals with MKN45. The experiment in a line: In vitro cytotoxicity assay, MKN45. The format is cell-based. As to conditions: MKN45, HER2+.
Text: as §1, §2, §3

As to Trastuzumab emtansine [Kadcyla], the IC50 in test [1] (Table 2) was 14 nM; in test [2] (Table 2) it was 86 nM; in test [3] (Table 2) it was 62 nM; in test [4] (NCI-N87-hMDR1, Table 4), 2.5 nM; in test [5] (NCI-N87, HER2+++, Table 2) it was 0.15 nM; in test [5] (NCI-N87, Table 4 (MDR1 comparison)), 0.38 nM. The half-maximal inhibitory concentration (IC50) in test [7] (Table 2) is 0.06 nM; in test [8] (Table 2), 52 nM. Also, the GI50 in test [1] (Table 3) was determined as 15 nM; in test [2] (Table 3), 64 nM; in test [3] (Table 3), 156 nM; in test [4] (NCI-N87-hMDR1, Table 5), 6.7 nM; in test [5] (NCI-N87, HER2+++, Table 3), 0.24 nM; in test [5] (NCI-N87, Table 5 (MDR1 comparison)), 0.53 nM. Further, the results for the concentration for 50% growth inhibition (GI50) in test [7] (Table 3) and in test [8] (Table 3) were 0.052 nM and 107 nM, respectively. The “NCI-N87/NCI-N87-hMDR1 (folds), GI50” value in test [4] (ratio of GI50 values, Table 5) amounted to 13 folds. For the same substance, in test [6], the “tumor volume as a function of time (FIG. 1)” value is given as “significant tumor growth”.

Source of the values: US20250032635A1, “LIGAND-POLAR DRUG CONJUGATES” (priority 2023, published 2025).
